One molecule from patent US20230263758A1, “COMPOSITIONS OF EDTA HAVING ACTIVITY AGAINST PLANKTONIC AND BIOFILM CELLS OF CLINICALLY RELEVANT PATHOGENS” (SterileCare Inc., priority 2022, published 2023) can be followed below.

One experiment relates to S. epidermidis SK9. In words: Checkerboard titration, FICI. To be noted: EDTA + ethanol checkerboard. It counts as cell-based, Staphylococcus epidermidis. The protocol:
(§1) A fourth composition and solution included tetrasodium EDTA with ethanol or chlorhexidine HCl. This fourth composition and solution were created using checkerboard titration methods using micro broth dilution in 96-well microtiter plates. The concentrations of antimicrobials used were based on previously determined MIC values. Briefly, 200 μL of two-fold dilutions of tetrasodium EDTA and ethanol or chlorhexidine HCl were prepared in MH or MH II broth with standardized cell suspension. […] Microtiter plates were incubated at 37° C. for 24 h, and the results were analyzed. Each test was performed in duplicate and included a growth control without adding any antimicrobials.

The next experiment concerns MRSA ON184. The experiment in a line: Checkerboard titration, FICI. Conditions: EDTA + ethanol checkerboard. It is filed as cell-based, Staphylococcus aureus. The protocol: as §1
For a further experiment, the system named is Candida albicans SK4b. In words: Checkerboard titration, FICI. It counts as cell-based. To be noted: C. albicans SK4b; EDTA + ethanol checkerboard. The protocol: as §1
In the next experiment the test system is Escherichia coli ON29. The experiment in a line: Checkerboard titration, FICI. To be noted: E. coli ON29; EDTA + ethanol checkerboard. It is filed as cell-based. The protocol:
as §1

Another experiment deals with Proteus mirabilis ON153. The experiment in a line: Checkerboard titration, FICI. It counts as cell-based. Conditions: P. mirabilis ON153; EDTA + ethanol checkerboard. The protocol:
as §1

For experiment [1], the system named is Pseudomonas aeruginosa SK1. In words: Checkerboard titration, FICI. It is filed as cell-based. Conditions: P. aeruginosa SK1; EDTA + ethanol checkerboard. The protocol:
as §1

Another experiment concerns Serratia marcescens SK2. In words: Checkerboard titration, FICI. It counts as cell-based. Conditions: S. marcescens SK2; EDTA + ethanol checkerboard. The protocol:
as §1

Experiment [2] has as its system Staphylococcus aureus ON89. In words: Checkerboard titration, FICI. It is filed as cell-based. Conditions: S. aureus ON89; EDTA + ethanol checkerboard. The protocol: as §1
Experiment [3] concerns Staphylococcus epidermidis ON170. The experiment in a line: Checkerboard titration, FICI. It is filed as cell-based. To be noted: S. epidermidis ON170; EDTA + ethanol checkerboard. The protocol: as §1
Experiment [4] relates to Stenotrophomonas maltophilia ON17. The experiment in a line: Checkerboard titration, FICI. It counts as cell-based. Conditions: S. maltophilia ON17; EDTA + ethanol checkerboard. The protocol: as §1
Another experiment concerns E. coli SK2. The experiment in a line: Checkerboard titration, FICI. To be noted: EDTA + ethanol checkerboard. It is filed as cell-based, Escherichia coli. The protocol: as §1
A further experiment concerns C. albicans ON47. In words: Checkerboard titration, FICI. It counts as cell-based, Candida albicans. To be noted: EDTA + ethanol checkerboard. The protocol:
as §1

Experiment [5] deals with 48-h-old biofilms of bacterial and fungal strains. In words: MBEC assay, summary, 24 h exposure of 48-h-old biofilms. It counts as cell-based. The protocol:
A biofilm cultivation cell composition was provided. This fifth composition was created using an MBEC Assay® biofilm inoculator, consisting of a polystyrene lid with 96 downward-protruding pegs and a corresponding base used to grow biofilms. A standardized inoculum was diluted in an appropriate biofilm growth medium to achieve a viable cell count of 1.5×10^6 CFU/mL of bacterial cells or 5×10^5 CFU/mL of fungal cells. Then, 150 μL of this inoculum was transferred into each appropriate well, and the peg lids were inserted into the microtiter plates. The plates were sealed with Parafilm and were incubated at optimum temperature for 48 h with slight rocking for bacteria and shaking at 200 rpm for fungal strains. After incubation, the peg lid was removed from the base and rinsed twice with sterile phosphate-buffered saline (PBS) for 2 min to remove loosely attached non-sessile cells. Before the antimicrobial challenge, the pegs in column 1 (n=8) were considered the biofilm growth control; these pegs were removed from the lids, placed into 200 μL of recovery medium, and analyzed for starting biofilm cell numbers as described below. […] After the antimicrobial challenge, the pegs were rinsed twice with sterile PBS for 2 min and placed into a new 96-well plate containing 200 μL of recovery medium. The recovery plates were sealed with Parafilm, and biofilm cells were dislodged from the pegs by sonication for 30 min with a Branson 3510 bath sonicator. The biofilm cells in the recovery medium were serially diluted, and a drop dilution assay was performed to enumerate the viable cells. MBEC values were determined as the minimum concentration of antimicrobials that yielded a viable cell count at or lower than the 125 CFU/mL detection limit.

Experiment [6] relates to 48-h old biofilms of bacterial and fungal test organisms. In words: Rapid biofilm eradication, 2-h exposure. It counts as cell-based. Conditions: each agent alone at its MBEC. The protocol: Determining rapid biofilm eradication by tetrasodium EDTA, ethanol, and chlorhexidine HCl alone and in combination was performed. After biofilm formation, control pegs (n=6) were removed and analyzed to determine the starting biofilm cell numbers via the drop dilution method. The 48-h old biofilms on the pegs were exposed to different concentrations of test antimicrobials, dissolved in an appropriate growth medium, for two h to evaluate their efficacy alone and in combination. […] Following treatment, pegs were washed twice with sterile PBS, and the biofilm cells were dislodged into recovery medium and enumerated as described above.
The method for rapid biofilm eradication ability of test antimicrobials alone and in combination against 48-h-old biofilms within two h exposure time included (1) choosing different concentrations of test antimicrobials to assess their potency in eradicating preformed biofilms of study organisms within two h. Then (2) the quantitative recovery from biofilms following exposure to the antimicrobial solutions for bacterial strains (FIGS. 4A-4C) and fungal strains (FIG. 5) was evaluated.

As to `CCO` [Ethanol, ethanol, reference compound], the “Inhibitory concentration in combination” value in the experiment with S. epidermidis SK9 was 0.4 % w/v; with MRSA ON184 it was 0.4 % w/v; in the experiment on Candida albicans SK4b it was 1.6 % w/v; in the experiment on Escherichia coli ON29, 3.125 % w/v; with Proteus mirabilis ON153 it was 1.6 % w/v; in experiment [1], 3.125 % w/v. The “Inhibitory concentration in combination” value with Serratia marcescens SK2 came to 3.125 % w/v; in experiment [2], 0.4 % w/v; in experiment [3], 0.4 % w/v; in experiment [4] it was 0.4 % w/v; in the experiment on E. coli SK2, 6.25 % w/v; in the experiment with C. albicans ON47 it was 0.4 % w/v. Further, the “Concentration alone able to eradicate all established biofilms following 24 h of treatment” value in experiment [5] turned out to be 5%. For the same molecule, the “Eradication of preformed biofilms after 2 h of exposure” value in experiment [6] is “failed to eradicate”.
